Data on 16 compounds can be found in patent US8293769B2, “CSF-1R inhibitors, compositions, and methods of use” (Novartis AG, priority 2008, dated 2012).

In assay [1] the target is T1, cytoplasmic domain of the human CSF-1R (Homo sapiens, UniProt P07333).
T1 construct: Recombinant protein corresponding to the cytoplasmic domain of the human CSF-1R; purchased Invitrogen Corporation, Carlsbad, Calif; PV3249
T1 sequence (P07333 539-972 limits assumed): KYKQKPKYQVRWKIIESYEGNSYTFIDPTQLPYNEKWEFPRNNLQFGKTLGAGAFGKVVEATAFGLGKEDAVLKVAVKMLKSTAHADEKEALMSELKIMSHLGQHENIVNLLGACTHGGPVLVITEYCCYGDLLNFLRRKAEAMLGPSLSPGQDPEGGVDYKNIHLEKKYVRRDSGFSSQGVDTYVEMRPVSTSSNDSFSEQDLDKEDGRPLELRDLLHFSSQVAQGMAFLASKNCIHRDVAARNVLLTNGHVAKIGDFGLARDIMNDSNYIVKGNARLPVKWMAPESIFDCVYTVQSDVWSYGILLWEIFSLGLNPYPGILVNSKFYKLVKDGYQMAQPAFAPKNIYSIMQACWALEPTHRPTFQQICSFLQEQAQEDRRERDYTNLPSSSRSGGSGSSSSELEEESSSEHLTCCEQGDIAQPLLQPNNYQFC
Put plainly: In vitro kinase assay for CSF-1R (AlphaScreen). Type of assay: biochemical. Particulars: tested at about 1 μM; read-out: CSF1RK 1 percent inhibition. The gist of the method: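 Recombinant CSF-1R cytoplasmic domain (4 nM) phosphorylated biotinylated peptide (0.05 μM) at 1.0 μM ATP in HEPES with Mg2+/Mn2+, 2 h at room temperature, compounds from 25 μM in 3-fold steps. AlphaScreen anti-phosphotyrosine PT66 detection; IC50 by non-linear regression.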
Background: Bead proximity is the source of the signal in Alpha formats.

The target of another assay is T2, cKIT (Homo sapiens, UniProt P10721).
T2 construct: The kinase domain of cKIT was assayed in 50 mM Hepes; purchased Upstate 14-559
Put plainly: cKIT kinase in vitro biochemical assay (alphascreen). The settings on record: tested at about 1 μM; read-out: CKIT percent inhibition.

The next assay has as its target T3, PDGFRb (Homo sapiens, UniProt P09619).
T3 construct: The kinase domain of PDGFRβ was assayed in 50 mM Hepes; purchased Invitrogen P3082
Put plainly: PDGFRb kinase in vitro biochemical assay (alphascreen). Particulars: tested at about 1 μM; read-out: PDGF RK BETA percent inhibition.

The subject of assay [2] is MNFS60 (murine AML cells). Put plainly: Cell viability assay in MCSF dependent MNFS60 cells (Cell Titer Glo). The assay is classed as cell-based. Particulars: Mus musculus; tested at about 1 μM; MCSF 10 ng/mL, 72 hrs; read-out: CPEC50 MNFS60MCSF percent inhibition. The essentials: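 MNFS60 cells, 5,000 per well in RPMI-1640/10% FBS, grown with 10 ng/mL MCSF and 3-fold compound dilutions for 72 h at 37 °C. Viable cells measured by CellTiter-Glo luminescence, triplicates; EC50 fitted, with MCSF-free wells as 100% inhibition.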

Assay [3] deals with T4, full-length human CSF-1R receptor (Homo sapiens, UniProt P07333).
T4 construct: transfected with the full-length human CSF-1R receptor cloned in house; expressed in transfected cells; host or cells: HEK293H (Invitrogen Cat. #11631017)
Put plainly: In vitro inhibition of CSF-1R receptor tyrosine phosphorylation in transfected HEK293H cells. Type of assay: cell-based. The settings on record: HEK293-H, tested at about 1 μM, 50 ng/mL MCSF, read-out: PCSF1R percent inhibition. The protocol:
To test the inhibition of CSF-1R receptor tyrosine phosphorylation, HEK293H purchased from Invitrogen Cat. #11631017 cells transfected with the full-length human CSF-1R receptor cloned in house into mammalian episomal transfection vector were incubated for 1 h with serial dilutions of compounds starting at 10 μM with 3 fold dilutions and then stimulated for 8 min with 50 ng/mL MCSF. After the supernatant was removed, the cells were lysed on ice with lysis buffer (150 mM NaCl, 20 mM Tris, pH 7.5, 1 mM EDTA, 1 mM EGTA, 1% Triton X-100 and NaF, protease and phosphatase inhibitors) and then shaken for 15-20 min at 4° C. The lysate was then transferred to total CSF-1R antibody coated 96-well plates that had already been blocked with 3% Blocker A from Mesoscale discovery (MSD) for 2 hours and washed afterwards. Lysates were incubated overnight at 4° C. and the plates were then washed 4× with MSD Tris Wash Buffer. The SULFO-TAG anti-pTyr antibody from MSD was diluted to 20 nM final in 1% Blocker A (MSD) solution and added to the washed plates and incubated for 1.5-2 h before addition of read buffer (MSD). The plates were read on the Sector 6000 instrument (MSD). Raw data was imported in Abase and EC50s calculated with XL-fit data analysis software.

T2 sequence (P10721 589-937 limits assumed): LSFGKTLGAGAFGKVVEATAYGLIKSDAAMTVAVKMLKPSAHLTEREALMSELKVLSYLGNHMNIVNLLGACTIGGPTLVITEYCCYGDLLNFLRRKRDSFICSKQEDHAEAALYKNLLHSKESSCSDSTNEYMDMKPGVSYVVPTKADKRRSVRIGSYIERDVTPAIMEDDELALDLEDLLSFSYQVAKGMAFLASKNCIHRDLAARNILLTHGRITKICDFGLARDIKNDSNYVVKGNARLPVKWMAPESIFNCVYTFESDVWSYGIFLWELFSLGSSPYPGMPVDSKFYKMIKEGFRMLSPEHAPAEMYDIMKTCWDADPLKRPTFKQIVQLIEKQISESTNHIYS
T4 sequence (P07333 20-972): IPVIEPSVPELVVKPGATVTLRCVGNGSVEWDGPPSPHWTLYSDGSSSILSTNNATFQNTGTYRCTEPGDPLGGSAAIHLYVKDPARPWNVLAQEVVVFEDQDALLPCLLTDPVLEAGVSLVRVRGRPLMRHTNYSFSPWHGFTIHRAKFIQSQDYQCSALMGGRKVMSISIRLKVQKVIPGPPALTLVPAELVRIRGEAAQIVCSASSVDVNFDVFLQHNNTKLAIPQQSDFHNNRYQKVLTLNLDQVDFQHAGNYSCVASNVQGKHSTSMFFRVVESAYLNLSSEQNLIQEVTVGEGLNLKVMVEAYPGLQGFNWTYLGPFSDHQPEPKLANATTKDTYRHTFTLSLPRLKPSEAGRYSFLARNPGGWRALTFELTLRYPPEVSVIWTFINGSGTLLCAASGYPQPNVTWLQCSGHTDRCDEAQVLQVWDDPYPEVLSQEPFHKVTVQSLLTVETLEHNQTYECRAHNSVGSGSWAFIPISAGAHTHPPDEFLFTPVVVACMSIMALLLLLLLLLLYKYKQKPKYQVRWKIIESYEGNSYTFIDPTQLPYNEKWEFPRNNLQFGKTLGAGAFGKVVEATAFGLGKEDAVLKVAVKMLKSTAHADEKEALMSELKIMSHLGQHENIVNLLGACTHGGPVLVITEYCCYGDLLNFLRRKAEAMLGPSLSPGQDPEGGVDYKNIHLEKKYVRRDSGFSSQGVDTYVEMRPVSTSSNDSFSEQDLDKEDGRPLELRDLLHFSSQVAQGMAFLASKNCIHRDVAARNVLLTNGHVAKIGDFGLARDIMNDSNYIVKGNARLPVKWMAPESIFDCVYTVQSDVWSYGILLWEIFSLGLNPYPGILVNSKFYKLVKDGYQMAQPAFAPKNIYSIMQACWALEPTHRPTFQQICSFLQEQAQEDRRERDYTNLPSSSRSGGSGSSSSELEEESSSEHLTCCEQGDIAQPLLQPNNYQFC
T3 sequence (P09619 600-962 limits assumed): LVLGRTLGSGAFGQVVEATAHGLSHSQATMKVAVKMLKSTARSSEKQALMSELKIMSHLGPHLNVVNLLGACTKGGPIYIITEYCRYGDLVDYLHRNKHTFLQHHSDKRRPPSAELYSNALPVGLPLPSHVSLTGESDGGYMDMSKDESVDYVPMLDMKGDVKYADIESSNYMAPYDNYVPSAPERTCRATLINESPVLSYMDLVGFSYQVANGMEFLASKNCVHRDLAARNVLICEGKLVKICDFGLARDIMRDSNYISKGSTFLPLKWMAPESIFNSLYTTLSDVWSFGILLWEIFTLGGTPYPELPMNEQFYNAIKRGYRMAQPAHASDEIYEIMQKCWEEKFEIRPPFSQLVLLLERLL

A word on the inhibition: it is the change of the read-out against control, counted positive when it falls. As to `O[C@@H]1CCCC[C@H]1Nc1nc2ccc(Oc3ccnc(-c4cccnc4)n3)cc2s1` [Compound 27, (1R,2R)-2-(6-(2-(pyridin-3-yl)pyrimidin-4-yloxy)benzo [d]thiazol-2-ylamino) cyclohexanol], the inhibition at 1 µM stood at 100% in assay [1]; 20% at cKIT; 8% on PDGFRb; 54% in assay [2]; 78% in assay [3].

On to `O[C@@H]1CCCC[C@H]1Nc1nc2ccc(Oc3ccnc(-c4ccncc4)n3)cc2s1` [Compound 28, (1R,2R)-2-(6-(2-(pyridin-4-yl)pyrimidin-4-yloxy)benzo [d]thiazol-2-ylamino) cyclohexanol], for which the inhibition at 1 µM was 100% in assay [1]; 18% on cKIT; 25% at PDGFRb; 67% in assay [2]; 88% in assay [3].

Consider `C[C@H](Nc1nc2ccc(Oc3ccnc(-c4cccnc4)n3)cc2s1)C1CCCCC1` [Compound 31, (S)-N-(1-cyclohexylethyl)-6-(2-(pyridin-3-yl)pyrimidin-4-yloxy)benzo[d] thiazol-2-amine], for which the inhibition at 1 µM in assay [1] was determined as 100%; at cKIT, 29%; at PDGFRb, 6%; in assay [2] it was 58%; in assay [3], 59%.

Take `C[C@H](Nc1nc2ccc(Oc3ccnc(-c4ccncc4)n3)cc2s1)C1CCCCC1` [Compound 32, (S)-N-(1-cyclohexylethyl)-6-(2-(pyridin-4-yl)pyrimidin-4-yloxy)benzo[d] thiazol-2-amine]: the inhibition at 1 µM in assay [1] was 100%; at cKIT it was 30%; on PDGFRb, 14%; in assay [2], 58%; in assay [3], 70%.

Regarding `O[C@@H]1CCCC[C@H]1Nc1nc2ccc(Oc3cncc(Br)c3)cc2s1` [Compound 45, (1R,2R)-2-(6-(5-bromopyridin-3-yloxy)benzo[d]thiazol-2-ylamino)cyclohexanol], the inhibition at 1 µM in assay [1] came to 100%; at cKIT, 60%; on PDGFRb, 5%; in assay [2], 96%; in assay [3], 93%.

Turning to `Cn1nccc1-c1cncc(Oc2ccc3nc(N[C@@H]4CCCC[C@H]4O)sc3c2)c1` [Compound 56, (1R,2R)-2-(6-(5-(1-methyl-1H-pyrazol-5-yl)pyridin-3-yloxy)benzo[d]thiazol-2-ylamino)cyclohexanol], the inhibition at 1 µM in assay [1] came out at 100%; on cKIT, 43%; on PDGFRb it was 10%; in assay [2], 93%; in assay [3] it was 96%.

As for `O[C@@H]1CCCC[C@H]1Nc1nc2ccc(Oc3cncc(-c4cccnc4)c3)cc2s1` [Compound 57, (1R,2R)-2-(6-(3,3′-bipyridin-5-yloxy)benzo[d]thiazol-2-ylamino)cyclohexanol], the inhibition at 1 µM stood at 100% in assay [1]; 45% at cKIT; 0% at PDGFRb; 96% in assay [2]; 96% in assay [3].

Turning to `O[C@@H]1CCCC[C@H]1Nc1nc2ccc(Oc3cncc(-c4ccncc4)c3)cc2s1` [Compound 60, (1R,2R)-2-(6-(3,4′-bipyridin-5-yloxy)benzo[d]thiazol-2-ylamino)cyclohexanol], the inhibition at 1 µM in assay [1] came out at 100%; on cKIT, 52%; on PDGFRb, 3%; in assay [2], 97%; in assay [3], 95%.

As for `Nc1ncc(-c2cncc(Oc3ccc4nc(N[C@@H]5CCCC[C@H]5O)sc4c3)c2)cn1` [Compound 63, (1R,2R)-2-(6-(5-(2-aminopyrimidin-5-yl)pyridin-3-yloxy)benzo[d]thiazol-2-ylamino) cyclohexanol], the inhibition at 1 µM in assay [1] came out at 100%; at cKIT, 35%; at PDGFRb, 14%; in assay [2], 61%; in assay [3], 80%.

Take `O[C@@H]1CCCC[C@H]1Nc1nc2ccc(Oc3cncc(-c4ccc(F)cc4)c3)cc2s1` [Compound 64, (1R,2R)-2-(6-(5-(4-fluorophenyl)pyridin-3-yloxy)benzo [d]thiazol-2-ylamino) cyclohexanol]: the inhibition at 1 µM in assay [1] came to 100%; on cKIT it was 54%; at PDGFRb, 8%; in assay [2] it was 100%; in assay [3] it was 95%.

Take `Cn1ccnc1-c1cncc(Oc2ccc3nc(N[C@@H]4CCCC[C@H]4O)sc3c2)c1` [Compound 66, (1R,2R)-2-(6-(5-(1-methyl-1H-imidazol-2-yl)pyridin-3-yloxy)benzo[d]thiazol-2-ylamino) cyclohexanol]: the inhibition at 1 µM in assay [1] was found to be 100%; at cKIT it was 40%; at PDGFRb it was 9%; in assay [2], 90%; in assay [3] it was 96%.

With `Cn1cncc1-c1cncc(Oc2ccc3nc(N[C@@H]4CCCC[C@H]4O)sc3c2)c1` [Compound 68, (1R,2R)-2-(6-(5-(1-methyl-1H-imidazol-5-yl)pyridin-3-yloxy)benzo[d]thiazol-2-ylamino) cyclohexanol], the inhibition at 1 µM in assay [1] was determined as 100%; at cKIT, 33%; on PDGFRb it was 21%; in assay [2], 85%; in assay [3], 93%.

On to `CC(C)(C)OC(=O)N1CC=C(c2cncc(Oc3ccc4nc(N[C@@H]5CCCC[C@H]5O)sc4c3)c2)CC1` [Compound 79], for which the inhibition at 1 µM stood at 100% in assay [1]; 48% on cKIT; 9% on PDGFRb; 93% in assay [2]; 93% in assay [3].

`C[C@H](Nc1nc2ccc(Oc3ccc(NO)nc3)cc2s1)C1CCCCC1` [Compound 101, (S)—N-(1-cyclohexylethyl)-6-(6-(hydroxyamino)pyridin-3-yloxy)benzo[d]thiazol-2-amine]: the inhibition at 1 µM was determined as 100% in assay [1], 74% on cKIT, 31% at PDGFRb and 58% in assay [2].

`CN1CCN(c2ccc(-c3cc(Oc4ccc5nc(N[C@@H]6CCCC[C@H]6O)sc5c4)cnc3Cl)cn2)CC1` [Compound 103, (1R,2R)-2-(6-(2-chloro-6′-(4-methylpiperazin-1-yl)-3,3′-bipyridin-5-yloxy)benzo[d]thiazol-2-ylamino)cyclohexanol]: the inhibition at 1 µM in assay [1] was found to be 100%; on cKIT, 14%; at PDGFRb, 9%; in assay [2], 35%.

With `O[C@@H]1CCCC[C@H]1Nc1nc2ccc(Oc3cccnc3)cc2s1` [Compound 110, (1R,2R)-2-(6-(pyridin-3-yloxy)benzo[d]thiazol-2-ylamino)cyclohexanol], the inhibition at 1 µM was 100% in assay [1], 10% on cKIT, 14% on PDGFRb and 54% in assay [2].
